Results taken from PubChem BioAssay AID248 (DTP/NCI, 2004).
“And” between values parts separate entries of the source, which are not always exact repeats. Equal entries are not always repeated. Inconclusive results and toxic doses are left out.

Tested on: L1210 leukemia ip in BDF1 mice, survival T/C
Experiment: NCI In Vivo Anticancer Drug Screen. Data for tumor model L1210 Leukemia (intraperitoneal) in B6D2F1 (BDF1) mice
Conditions: endpoint: mean survival time, higher = longer survival
Summary of the method: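 Survival endpoint. Drug-treated group vs vehicle group, expressed as T divided by C. Tumor passaged by transplantation.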

[1] = dose: 100.0 mg/kg/injection, schedule: Q01DX001 (ip), vehicle: saline
[2] = dose: 200.0 mg/kg/injection, schedule: Q01DX001 (ip), vehicle: saline
[3] = dose: 75.0 mg/kg/injection, schedule: Q01DX001 (ip), vehicle: saline
[4] = dose: 100.0 mg/kg/injection, schedule: Q04DX003 (ip), vehicle: saline
[5] = dose: 150.0 mg/kg/injection, schedule: Q01DX001 (ip), vehicle: saline
[6] = dose: 200.0 mg/kg/injection, schedule: Q04DX003 (ip), vehicle: saline
[7] = dose: 300.0 mg/kg/injection, schedule: Q01DX001 (ip), vehicle: saline
[8] = dose: 400.0 mg/kg/injection, schedule: Q01DX001 (ip), vehicle: saline
[9] = dose: 50.0 mg/kg/injection, schedule: Q01DX001 (ip), vehicle: Klucel (hydroxypropylcellulose) (HPC)
[10] = dose: 100.0 mg/kg/injection, schedule: Q01DX001 (ip), vehicle: Klucel (hydroxypropylcellulose) (HPC)
[11] = dose: 200.0 mg/kg/injection, schedule: Q01DX001 (ip), vehicle: Klucel (hydroxypropylcellulose) (HPC)
[12] = dose: 100.0 mg/kg/injection, schedule: Q04DX003 (ip), vehicle: saline with Tween-80
[13] = dose: 200.0 mg/kg/injection, schedule: Q04DX003 (ip), vehicle: saline with Tween-80
[14] = dose: 400.0 mg/kg/injection, schedule: Q04DX003 (ip), vehicle: saline with Tween-80
[15] = dose: 50.0 mg/kg/injection, schedule: Q01DX009 (ip), vehicle: saline with Tween-80
[16] = dose: 100.0 mg/kg/injection, schedule: Q01DX009 (ip), vehicle: saline with Tween-80
[17] = dose: 50.0 mg/kg/injection, schedule: Q01DX001 (ip), vehicle: saline
[18] = dose: 100.0 mg/kg/injection, schedule: Q04DX003 (ip), vehicle: Klucel (hydroxypropylcellulose) (HPC)

For `Cc1cn(C2CC(O)C(CN)O2)c(=O)[nH]c1=O` (configuration not stated), the T/C (dose: 100.0 mg/kg/injection, schedule: Q01DX005 (ip), vehicle: saline) was 96 % of control and the T/C (dose: 200.0 mg/kg/injection, schedule: Q01DX005 (ip), vehicle: saline) was 104 % of control.
For `O=C(O)c1ccccc1NC(c1ccccc1)c1ccc2cccnc2c1O` (configuration not stated), the T/C [1] was 89 % of control and the T/C [2] was 89 % of control.
In the case of `CC1C2COCC2CC2OC21` (configuration not stated), the T/C (dose: 50.0 mg/kg/injection, schedule: Q01DX001 (ip), vehicle: saline sonified) is reported as 124 % of control, the T/C (dose: 100.0 mg/kg/injection, schedule: Q01DX001 (ip), vehicle: saline sonified) is reported as 109 % of control and the T/C (dose: 200.0 mg/kg/injection, schedule: Q01DX001 (ip), vehicle: saline sonified) is reported as 102 % of control.
For `NCC1OC(OC2C(N)CC(N)C(O)C2OC2OC(CO)C(O)C2O)C(N)C(O)C1O` (configuration not stated), the T/C [3] was 92 % of control, the T/C (dose: 75.0 mg/kg/injection, schedule: Q01DX009 (ip), vehicle: saline) was 98 % of control and the T/C [1] was 100 % of control. For the same compound, the T/C [4] was 100 % of control, the T/C [5] was 97 % of control and the T/C (dose: 150.0 mg/kg/injection, schedule: Q01DX009 (ip), vehicle: saline) was 96 % of control. For the same compound, the T/C [2] was 100 % of control, the T/C [6] was 95 % of control and the T/C [7] was 93 % of control. For the same compound, the T/C (dose: 300.0 mg/kg/injection, schedule: Q01DX009 (ip), vehicle: saline) was 98 % of control, the T/C [8] was 100 % of control and the T/C (dose: 400.0 mg/kg/injection, schedule: Q04DX003 (ip), vehicle: saline) was 95 % of control.
`O=C1NC(=O)C2C3C=CC(C3)C12` (configuration not stated) was tested, and the T/C [9] was 101 % of control, the T/C [10] was 99 % of control and the T/C [11] was 101 % of control.
`CCC(=O)N/N=C/C=N/NC(=O)c1ccncc1` was tested, and the T/C [3] was 96 % of control, the T/C [10] was 97 % of control and the T/C (dose: 100.0 mg/kg/injection, schedule: Q01DX009 (ip), vehicle: Klucel (hydroxypropylcellulose) (HPC)) was 93 % of control. For the same compound, the T/C [5] was 99 % of control, the T/C [11] was 101 % of control and the T/C (dose: 200.0 mg/kg/injection, schedule: Q01DX009 (ip), vehicle: Klucel (hydroxypropylcellulose) (HPC)) was 100 % of control. For the same compound, the T/C [7] was 92 % of control and the T/C (dose: 400.0 mg/kg/injection, schedule: Q01DX001 (ip), vehicle: Klucel (hydroxypropylcellulose) (HPC)) was 94 % of control.
For `COC(=O)C(C(=O)OC)=C(C(=O)OC)C(=O)OC`, the T/C [12] was 89 % of control, the T/C [13] was 94 % of control and the T/C [14] was 93 % of control.
`OC(c1ccccc1)(c1ccccc1)c1ccccc1CNc1ccccc1` was tested, and the T/C (dose: 50.0 mg/kg/injection, schedule: Q01DX001 (ip), vehicle: carboxymethylcellulose (CMC)) was 102 % of control, the T/C (dose: 100.0 mg/kg/injection, schedule: Q01DX001 (ip), vehicle: carboxymethylcellulose (CMC)) was 88 % of control and the T/C (dose: 200.0 mg/kg/injection, schedule: Q01DX001 (ip), vehicle: carboxymethylcellulose (CMC)) was 102 % of control. The T/C (dose: 400.0 mg/kg/injection, schedule: Q01DX001 (ip), vehicle: carboxymethylcellulose (CMC)) was 96 % of control.
`C/C=C\C=N\NC(N)=S` was tested, and the T/C (dose: 12.5 mg/kg/injection, schedule: Q04DX003 (ip), vehicle: saline with Tween-80) was 95 % of control, the T/C (dose: 25.0 mg/kg/injection, schedule: Q04DX003 (ip), vehicle: saline with Tween-80) was 103 % of control and the T/C (dose: 50.0 mg/kg/injection, schedule: Q04DX003 (ip), vehicle: saline with Tween-80) was 95 % of control.
With `CCCCCCCCCCCCCC(=O)OC1C(CO)OC2C1Oc1nc(=N)ccn12` (configuration not stated) the T/C (dose: 25.0 mg/kg/injection, schedule: Q01DX009 (ip), vehicle: other) was 152 % of control, the T/C (dose: 50.0 mg/kg/injection, schedule: Q01DX009 (ip), vehicle: other) was 171 % of control and the T/C (dose: 100.0 mg/kg/injection, schedule: Q01DX009 (ip), vehicle: other) was 214 % of control. For the same compound, the T/C (dose: 200.0 mg/kg/injection, schedule: Q01DX009 (ip), vehicle: other) was 179 % of control.
With `CSCC(O)CSC` the T/C (dose: 100.0 mg/kg/injection, schedule: Q04DX002 (ip), vehicle: saline with Tween-80) was 90 % of control, the T/C (dose: 200.0 mg/kg/injection, schedule: Q04DX002 (ip), vehicle: saline with Tween-80) was 93 % of control and the T/C (dose: 400.0 mg/kg/injection, schedule: Q04DX002 (ip), vehicle: saline with Tween-80) was 87 % of control.
With `CC(=O)OC1CC2CCC1(C)C2(C)C` (configuration not stated) the T/C [15] was 100 % of control, the T/C (dose: 50.0 mg/kg/injection, schedule: Q01DX009 (ip), vehicle: saline) was 96 % of control and the T/C [16] was 96 % of control. For the same compound, the T/C (dose: 100.0 mg/kg/injection, schedule: Q01DX009 (ip), vehicle: saline) was 98 % of control, the T/C [4] was 87 % of control and the T/C (dose: 200.0 mg/kg/injection, schedule: Q01DX009 (ip), vehicle: saline with Tween-80) was 96 % of control. The T/C (dose: 200.0 mg/kg/injection, schedule: Q01DX009 (ip), vehicle: saline) was 89 % of control and the T/C [6] was 90 % of control.
`c1ccc(C(=NC(c2ccccc2)c2ccccc2)c2ccccc2)cc1` was tested, and the T/C [17] was 98 % of control, the T/C [1] was 98 % of control and the T/C [2] was 96 % of control. The T/C [8] was 98 % of control.
`CC(C)C(N)C(=O)OC(=O)C(N)CCCCN` (configuration not stated) was tested, and the T/C (dose: 12.5 mg/kg/injection, schedule: Q04DX002 (ip), vehicle: saline) was 107 % of control, the T/C (dose: 25.0 mg/kg/injection, schedule: Q04DX002 (ip), vehicle: saline) was 104 % of control and the T/C (dose: 50.0 mg/kg/injection, schedule: Q04DX002 (ip), vehicle: saline) was 101 % of control. For the same compound, the T/C [1] was 108 % of control, the T/C [2] was 101 % of control and the T/C [8] was 98 % of control.
`C[N+]1(C)CC2C3C=CC(C3)C2C1` (configuration not stated) was tested, and the T/C [18] was 102 % of control and the T/C (dose: 200.0 mg/kg/injection, schedule: Q04DX003 (ip), vehicle: Klucel (hydroxypropylcellulose) (HPC)) was 96 % of control.
With `CC(=C(C#N)C#N)c1ccc(Cl)cc1` the T/C (dose: 12.5 mg/kg/injection, schedule: Q01DX001 (ip), vehicle: Klucel (hydroxypropylcellulose) (HPC)) was 112 % of control, the T/C (dose: 25.0 mg/kg/injection, schedule: Q01DX001 (ip), vehicle: Klucel (hydroxypropylcellulose) (HPC)) was 91 % of control and the T/C [9] was 112 % of control. For the same compound, the T/C [18] was 108 % of control.
For `CCCCCCCCCCCCC1C(=O)NC(=S)NC1=O`, the T/C (dose: 75.0 mg/kg/injection, schedule: Q01DX001 (ip), vehicle: other) was 97 % of control and 100 % of control, the T/C (dose: 150.0 mg/kg/injection, schedule: Q01DX001 (ip), vehicle: other) was 101 % of control and 113 % of control and the T/C (dose: 300.0 mg/kg/injection, schedule: Q01DX001 (ip), vehicle: other) was 103 % of control.
For `CCN(CC)c1nc(SCc2ccccc2Cl)ncc1C`, the T/C (dose: 100.0 mg/kg/injection, schedule: Q01DX Z (ip), vehicle: methylcellulose (MC)) was 93 % of control and the T/C (dose: 200.0 mg/kg/injection, schedule: Q01DX Z (ip), vehicle: methylcellulose (MC)) was 98 % of control.
In the case of `COc1ccc(NC(=O)Nc2cc([N+](=O)[O-])ccc2C)c(OC)c1`, the T/C (dose: 100.0 mg/kg/injection, schedule: Q04DX002 (ip), vehicle: Klucel (hydroxypropylcellulose) (HPC)) is reported as 92 % of control, the T/C (dose: 200.0 mg/kg/injection, schedule: Q04DX002 (ip), vehicle: Klucel (hydroxypropylcellulose) (HPC)) is reported as 108 % of control and the T/C (dose: 400.0 mg/kg/injection, schedule: Q04DX002 (ip), vehicle: Klucel (hydroxypropylcellulose) (HPC)) is reported as 92 % of control.
`CC(C)COC(=O)CCCCC(=O)OCC(C)C` was tested, and the T/C [12] was 113 % of control, the T/C [13] was 107 % of control and the T/C [14] was 110 % of control.
In the case of `COc1ccc(OC)c(/C=N/NC(=O)C[N+](C)(C)C)c1`, the T/C [15] is reported as 88 % of control and the T/C [16] is reported as 86 % of control.
With `O=[N+]([O-])c1cc(/C=N/Nc2nnc(N/N=C/c3ccc(Cl)c([N+](=O)[O-])c3)c3ccccc23)ccc1Cl` the T/C [17] was 106 % of control, the T/C [1] was 96 % of control and the T/C [2] was 100 % of control. The T/C [8] was 100 % of control.
For `O=c1[nH]c(=O)c2nccnc2[nH]1`, the T/C (dose: 25.0 mg/kg/injection, schedule: Q01DX009 (ip), vehicle: water) was 109 % of control, the T/C (dose: 50.0 mg/kg/injection, schedule: Q01DX009 (ip), vehicle: water) was 111 % of control and the T/C (dose: 100.0 mg/kg/injection, schedule: Q01DX009 (ip), vehicle: water) was 104 % of control. For the same compound, the T/C (dose: 200.0 mg/kg/injection, schedule: Q01DX009 (ip), vehicle: water) was 101 % of control.
